Results reported in ChEMBL document CHEMBL1125225, “Delineating the pharmacophoric elements of huperzine A: importance of the unsaturated three-carbon bridge to its AChE inhibitory activity” (J Med Chem, 1991).

Target: T1, Acetylcholinesterase (Rattus norvegicus, UniProt P37136)
T1 sequence (P37136 whole entry): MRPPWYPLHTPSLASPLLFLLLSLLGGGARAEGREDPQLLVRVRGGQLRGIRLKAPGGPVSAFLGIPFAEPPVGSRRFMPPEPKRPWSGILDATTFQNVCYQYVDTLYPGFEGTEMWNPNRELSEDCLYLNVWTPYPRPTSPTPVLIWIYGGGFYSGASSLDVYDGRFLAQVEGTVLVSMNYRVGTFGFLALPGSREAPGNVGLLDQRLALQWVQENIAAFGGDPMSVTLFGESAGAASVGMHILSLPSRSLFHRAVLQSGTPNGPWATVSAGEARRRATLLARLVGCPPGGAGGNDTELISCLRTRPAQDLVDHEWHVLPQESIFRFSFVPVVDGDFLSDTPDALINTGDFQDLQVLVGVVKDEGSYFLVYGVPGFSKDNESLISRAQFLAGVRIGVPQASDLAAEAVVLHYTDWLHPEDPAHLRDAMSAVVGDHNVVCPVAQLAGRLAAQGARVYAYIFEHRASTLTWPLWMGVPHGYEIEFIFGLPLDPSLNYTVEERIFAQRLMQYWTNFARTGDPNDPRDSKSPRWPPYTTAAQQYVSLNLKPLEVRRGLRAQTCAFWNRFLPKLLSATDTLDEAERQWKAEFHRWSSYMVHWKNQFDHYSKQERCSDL
Assay: Compound was tested for its ability to inhibit the action of acetylcholinesterase isolated from rat brain cortex

SMILES | IC50
C/C=C1\C2CCC[C@]1(N)c1ccc(O)nc1C2 | 9.82 µM
C/C=C1\CCc2[nH]c(=O)ccc2[C@]1(C)N | 338 µM
CN(C)Cc1ccc(=O)[nH]c1 | > 900 µM
NCc1ccc(O)nc1 | > 900 µM
